Data as given in ChEMBL document CHEMBL5728971, “Small molecule inhibitors of lactate dehydrogenase and methods of use thereof” (2022).
pIC50: −log10 of the molar value. “And” between values parts separate entries of the source, which are not always exact repeats. Equal values may be shown once.

Assay: Biochemical Assay: Test compounds were placed in a Greiner Bio-One (Monroe, N.C.) 1536-well black solid bottom assay plate. 200 millimolar (mM) Tris HCl, pH 7.4, 100 micromolar (μM) EDTA and 0.01% TWEEN-20™, final concentration, was used as the assay buffer. The LDHA reagent was 2 nanomolar (nM) Human LDHA (Meridian Life Science, Inc., Memphis, Tenn.), final concentration, in assay buffer.

pIC50	IC50	Compound
> 7.00		Cc1ccc(C#Cc2cccc(-c3nn(-c4nc(C(=O)O)cs4)c(CC4CC4)c3Cc3ccc(S(N)(=O)=O)c(F)c3)c2)s1
> 7.00		NS(=O)(=O)c1ccc(Cc2c(-c3ccc(F)c(C#CC4CCCC4)c3)nn(-c3nc(C(=O)O)cs3)c2CC2CC2)cc1
> 7.00		NS(=O)(=O)c1ccc(Cc2c(-c3ccc(F)c(C4CCOCC4)c3)nn(-c3nc(C(=O)O)cs3)c2CC2CC2)cc1F
> 7.00		NS(=O)(=O)c1ccc(Cc2c(-c3ccc(F)c(C#CC4CC4)c3)nn(-c3nc(C(=O)O)cs3)c2CC2CC2)cc1
	in the range around 29000 nM	CCOC(=O)c1csc(-n2nc(-c3ccc(F)c(-c4ccc(F)cc4)c3)c(Cc3ccc(S(N)(=O)=O)c(F)c3)c2C2CC2)n1
> 7.00		NS(=O)(=O)c1ccc(Cc2c(-c3cccc(OC4CCCC4)c3)nn(-c3nc(C(=O)O)cs3)c2CC2CC2)cc1F
> 7.00		CC(C)c1ccc(-c2cc(-c3nn(-c4nc(C(=O)O)cs4)c(CC4CC4)c3Cc3ccc(S(N)(=O)=O)cc3)ccc2F)cc1
> 7.00		Cn1cc(-c2cc(-c3nn(-c4nc(C(=O)O)cs4)c(CC4CC4)c3Cc3ccc(S(N)(=O)=O)cc3F)ccc2F)cn1
> 7.00		NS(=O)(=O)c1ccc(Cc2c(-c3cccc(-c4ccc(F)cc4)c3)nn(-c3nc(C(=O)O)cs3)c2C2CC2)cc1F
> 7.00		NS(=O)(=O)c1ccc(Cc2c(-c3cccc(-c4cccc(F)c4)c3)nn(-c3nc(C(=O)O)cs3)c2C2CC2)cc1F
< 4.24		COc1ccc(-c2cc(O)n(-c3nc(C(=O)O)cs3)n2)cc1
> 7.00		NS(=O)(=O)c1ccc(Cc2c(-c3ccc(F)c(-c4cccc(F)c4)c3)nn(-c3nc(C(=O)O)cs3)c2C(F)(F)F)cc1
> 7.00		NS(=O)(=O)c1ccc(Cc2c(-c3ccc(F)c(C#CC4(F)COC4)c3)nn(-c3nc(C(=O)O)cs3)c2CC2CC2)cc1F
> 7.00		CC(C)C#Cc1cc(-c2nn(-c3nc(C(=O)O)cs3)c(CC3CC3)c2Cc2ccc(S(N)(=O)=O)c(F)c2)ccc1F
	in the range around 29000 nM	CC#Cc1cccc(-c2nn(-c3nc(C(=O)OCC)cs3)c(CC3CC3)c2Cc2ccc(S(N)(=O)=O)c(F)c2)c1
> 7.00		NS(=O)(=O)c1ccc(Cc2c(-c3ccc(F)c(C4CCCC4)c3)nn(-c3nc(C(=O)O)cs3)c2CC2CC2)cc1F
> 7.00		NS(=O)(=O)c1ccc(Cc2c(-c3ccc(F)c(C#CC4CCCC4)c3)nn(-c3nc(C(=O)O)cs3)c2C2CC2)cc1F
> 7.00		C/C=C(\C)c1cc(-c2nn(-c3nc(C(=O)O)cs3)c(CC3CC3)c2Cc2ccc(S(N)(=O)=O)c(F)c2)ccc1F
> 7.00		NS(=O)(=O)c1ccc(Cc2c(-c3cccc(-c4cccc(F)c4)c3)nn(-c3nc(C(=O)O)cs3)c2C2CC2)c(F)c1
< 4.24		Cn1cc(-c2cc(-c3c(Cc4ccc(S(N)(=O)=O)c(F)c4)c(CC4CC4)nn3-c3nc(C(=O)O)cs3)ccc2F)cn1
> 7.00		NS(=O)(=O)c1ccc(Cc2c(-c3ccc(F)c(C#CCC4CCCC4)c3)nn(-c3nc(C(=O)O)cs3)c2CC2CC2)cc1F
> 7.00		NS(=O)(=O)c1ccc(Cc2c(-c3ccc(F)c(C#CC4CCCC4)c3)nn(-c3nc(C(=O)O)cs3)c2CC2CC2)cc1F
< 4.24		COc1cccc(-c2cc(-c3c(Cc4ccc(S(N)(=O)=O)cc4)c(CC4CC4)nn3-c3nc(C(=O)O)cs3)ccc2F)c1
	in the range around 29000 nM	CCOC(=O)c1csc(-n2nc(-c3ccc(F)c(-c4cccc(F)c4)c3)c(Cc3ccc(S(N)(=O)=O)c(F)c3)c2C2CC2)n1
< 4.24		CCOC(=O)c1csc(-n2nc(C3CCCCC3)c(Oc3ccc(S(N)(=O)=O)cc3)c2-c2ccccc2)n1
> 7.00		COc1cccc(-c2cc(-c3nn(-c4nc(C(=O)O)cs4)c(C(F)(F)F)c3Cc3ccc(S(N)(=O)=O)cc3)ccc2F)c1

pIC50	IC50	Compound
	in the range around 29000 nM	NS(=O)(=O)c1ccc(Cc2c(C3CC3)nn(-c3nc(C(=O)O)cs3)c2-c2cccc(-c3cccc(F)c3)c2)c(F)c1
> 7.00		NS(=O)(=O)c1ccc(Cc2c(-c3ccc(F)c(C#CC(F)F)c3)nn(-c3nc(C(=O)O)cs3)c2CC2CC2)cc1F
< 4.24		CCOC(=O)c1csc(-n2nc(CC3CC3)c(Cc3ccc(S(N)(=O)=O)c(F)c3)c2-c2ccc(F)c(-c3cccc(F)c3)c2)n1
> 7.00		CC(c1ccccc1)c1cc(-c2nn(-c3nc(C(=O)O)cs3)c(CC3CC3)c2Cc2ccc(S(N)(=O)=O)c(F)c2)ccc1F (stereo unspecified)
> 7.00		Cc1ccc(-c2cc(-c3nn(-c4nc(C(=O)O)cs4)c(CC4CC4)c3Cc3ccc(S(N)(=O)=O)c(F)c3)ccc2F)o1
	in the range around 29000 nM	NS(=O)(=O)c1ccc(Cc2c(CC3CC3)nn(-c3nc(C(=O)O)cs3)c2-c2ccc(F)c(-c3cccc(F)c3)c2)cc1
> 7.00		Cc1ccc(-c2cc(-c3nn(-c4nc(C(=O)O)cs4)c(CC4CC4)c3Cc3ccc(S(N)(=O)=O)cc3F)ccc2F)cc1
< 4.24		O=C(O)c1csc(-n2nc(-c3ccccc3)cc2O)n1
	in the range around 550 nM	NS(=O)(=O)c1ccc(Cc2c(-c3cccc(-c4ccccc4)c3)nn(-c3nc(C(=O)O)cs3)c2CC(F)(F)F)cc1
> 7.00		NS(=O)(=O)c1ccc(Cc2c(-c3cccc(-c4cccc(F)c4)c3)nn(-c3nc(C(=O)O)cs3)c2CC2CC2)cc1F
> 7.00		Cc1ccc(-c2cccc(-c3nn(-c4nc(C(=O)O)cs4)c(CC4CC4)c3Cc3ccc(S(N)(=O)=O)c(F)c3)c2)cc1
	in the range around 29000 nM and > 57000 nM	CCOC(=O)c1csc(-n2nc(-c3cccc(-c4ccc(C)cc4)c3)c(Cc3ccc(S(N)(=O)=O)c(F)c3)c2CC2CC2)n1
> 7.00		NS(=O)(=O)c1ccc(Cc2c(-c3cccc(OCc4ccccc4)c3)nn(-c3nc(C(=O)O)cs3)c2CC2CC2)c(F)c1
	in the range around 550 nM	CNS(=O)(=O)c1ccc(Cc2c(-c3ccc(F)c(-c4cccc(F)c4)c3)nn(-c3nc(C(=O)O)cs3)c2CC2CC2)cc1F
	in the range around 29000 nM	CCOC(=O)c1csc(-n2nc(-c3ccc(F)c(C#CC4CCCC4)c3)c(Cc3ccc(S(N)(=O)=O)c(F)c3)c2C2CC2)n1
> 7.00		NS(=O)(=O)c1ccc(Cc2c(-c3cccc(-c4cccc(F)c4)c3)nn(-c3nc(C(=O)O)cs3)c2C(F)(F)F)cc1
> 7.00		NS(=O)(=O)c1ccc(Cc2c(-c3ccc(F)c(-c4ccc(F)cc4)c3)nn(-c3nc(C(=O)O)cs3)c2CC2CC2)cc1
< 4.24		CCOC(=O)c1csc(-n2nc(-c3ccc(F)c(-c4ccc(C)s4)c3)c(Cc3ccc(S(N)(=O)=O)c(F)c3)c2CC2CC2)n1
> 7.00		NS(=O)(=O)c1ccc(Cc2c(-c3cccc(-c4ccccc4)c3)nn(-c3nc(C(=O)O)cs3)c2CC2CC2)cc1F
< 4.24		CCOC(=O)c1csc(-n2nc(-c3ccc(F)c(-c4cccc(OC)c4)c3)c(Cc3ccc(S(N)(=O)=O)c(F)c3)c2C2CC2)n1
	in the range around 29000 nM	C#Cc1c(Cc2ccc(S(N)(=O)=O)cc2)c(-c2ccccc2)nn1-c1nc(C(=O)O)cs1
> 7.00		NS(=O)(=O)c1ccc(Cc2c(-c3ccc(F)c(C#CC4(O)COC4)c3)nn(-c3nc(C(=O)O)cs3)c2CC2CC2)cc1F
	in the range around 29000 nM	NS(=O)(=O)c1ccc(Cc2c(C3(C(F)(F)F)CC3)nn(-c3nc(C(=O)O)cs3)c2-c2cccc(-c3ccccc3)c2)cc1
> 7.00		NS(=O)(=O)c1ccc(Cc2c(-c3ccc(F)c(-c4cccs4)c3)nn(-c3nc(C(=O)O)cs3)c2CC2CC2)cc1F
> 7.00		NS(=O)(=O)c1ccc(Cc2c(-c3cccc(-c4ccccc4)c3)nn(-c3nc(C(=O)O)cs3)c2CC2CC2)cc1
